For data set [1], the system named is cellular peroxide levels in human epidermal keratinocytes. In words: Cellular peroxide levels in keratinocytes, DCFH-DA dye and flow cytometry, with and without exogenous H2O2. It is filed as cell-based. As to the method: Hydrogen peroxide can induce damages to skin cells. The dermal protective efficacy of Pal-hexapeptide was assessed by measuring basal peroxide levels in the presence and absence of the compound.
Basal peroxide production, generated by normal cellular metabolism, induce gradual development of low levels of peroxide-specific cellular fluorescence.
Extracellular peroxides (e.g., H2O2 added exogenously) can permeate the cell membrane and cause a rapid and dramatic increase in the peroxide-specific fluorescence of the cell. Cellular peroxides levels can be measured by flow cytometry using the peroxide-specific dye, 2′,7′-dichlorofluorescein diacetate (DCFH-DA). DCFH-DA is initially non-fluorescent and is rapidly concentrated within living cells by an enzyme-dependent process. […] The results of the assay indicates if a test compound functions as an oxidant or an anti-oxidant in a cellular system. If the test article functions as an anti-oxidant, this assay can also be used to determine if the test compound can permeate the cell membrane to quench intracellular peroxide or if it can only affect extracellular peroxide levels (Bass et al., 1983, J. Immunol. 130:1910-1917; Bombick et al., 1992, Toxicol. Meth. 2:255-264).
Human primary keratinocytes, generally on the third passage, were seeded in T75 flasks and cultured until 70-80% confluent. A cell suspension was created and these cells were loaded with the dye DCFH-DA. The pre-incubated cells were exposed to dilutions of the Pal-hexapeptide having the amino acid sequence SEQ ID NO: 2 in two triplicate sets per dilution. One triplicate set was incubated with H2O2 (exogenous source of peroxide), and both sets were stained with Propidium Iodide. Cell viability and peroxide production were determined by fluorescence readings on a FACScan flow cytometer. Peroxide value increases or decreases of 25% or more compared to vehicle control values are considered biologically significant.
(In flow cytometry, cells or beads pass a laser one at a time.)

The subject of data set [2] is UVA-bleaching of beta-carotene. Briefly: UVA bleaching of beta-carotene on forearm skin, Color Index by CHROMAMETER
The conditions noted are these: human forearm. Format: in vivo, human. As to the method: In-vivo method for assessing the protective effects of cosmetic products. Bleaching of carotenoids have been used to evaluate the auto-oxidation activity of natural products. The relative efficacy of scavengers of lipid peroxyl free radicals after application to the skin was assessed by measuring the UVA-bleaching of beta-carotene as a function of the energy exposure.
A CHROMAMETER colorimeter (TM, Minolta Model CR-300) was used to measure changes in color by expressing the color of measured surfaces numerically in L*a*b* color space which is a system recommended by the CIE (Commission Internationale de I'Eclairage) for skin color assessment. In this color space, L* is the luminance and gives the relative brightness from total black (L*=0) to total white (L*=100). The a* value represents the balance between the reds (positive values) and the greens (negative values). The b* value represents the balance between the yellows (positive values) and the blues (negative values). The b* value most closely describes the intensity of the orange color of the β-carotene stain and is in direct correlation with the Color Index, I. The CHROMAMETER provides a means by which oxidative damage caused by free radicals and, conversely, the prevention of oxidation by free radical scavengers, can be measured. Free radical oxidation induced by UVA radiation elicits a bleaching and reduction of color of beta-carotene stain. The bleaching and prevention of bleaching by a test material can be measured by the CHROMAMETER. Bleaching is reported as the change in b* versus UVA Irradiation Energy. It can also be expressed in terms of a Color Index, I, defined as: I=[(bn*−bi*)/(b0*−bi*)]×100 where, bn* is the value of b* measured after n J/cm^2 of irradiation of the area treated with the cosmetic formulation and painted with the β-carotene; b0* is the value of b* after application of the beta-carotene but before irradiation; and bi* is the value of b* before application of the beta-carotene. This index compensates for any effects of skin color on bn* and b0*. Bleaching will cause bn* value and I value (as a percentage) to decrease. Prevention of bleaching will result in higher I values or less reduction in I value when exposed to radiation.
The designated forearm of impaneled subjects was cleansed with a 70% isopropyl alcohol prep pad (Medium, Dynarex) and allowed to dry. Test sites were selected on the volar surface of the designated forearm of each subject, with each test site defined by the open, central area of a self-adhesive ring (Professional ProFoot™ Products, P.P.R. Co, Inc.). The adhesive side of the rings were placed directly on the skin. The rings were used to retain the test material and beta-carotene solution as well as to function as a guide for taking measurements with the CHROMAMETER.
Gel formulations (0.1% Pal-hexapeptide) and (0.1% hexapeptide) were applied to the forearm according to a randomized schedule. Additional sites were treated with a beta-carotene control, a positive control (internal control) and an untreated control. Treatment of the test sites were randomized for each subject.
Prior to application of the test materials or beta-carotene, the initial b* parameter was measured using the CHROMAMETER and recorded for all duplicate test sites of the forearm (Baseline). Approximately 2 mg/cm^2 of each material was applied to the designated test site and spread manually with a finger cot to ensure even distribution. Sites designated as untreated, with or without beta-carotene, remained untreated at this time. The test materials and internal control were allowed to incubate with the skin surface for a period of fifteen (15) minutes. After this incubation period, b* measurements were recorded for all sites (Product Baseline).
A solution of beta-carotene in a mixture of capric and caprylic triglycerides was applied to all treated sites. The b* parameter is again measured and recorded (beta-carotene Baseline). […]

Ends that are not written are not given here.

In the case of FSRYA [CS2309], the “% Control (no H2O2), peroxide level” value in data set [1] (0.1 mM, endogenous peroxide) amounted to 103.3%; in data set [1] (1 mM, endogenous peroxide), 61.6%; in data set [1] (10 mM, endogenous peroxide), 3.6%. Moreover, the “% Control (with H2O2), peroxide level” value in data set [1] (0.1 mM, exogenous H2O2 added) was 87.2%; in data set [1] (1 mM, exogenous H2O2 added), 46.2%; in data set [1] (10 mM, exogenous H2O2 added), −5.9%; in data set [1] (10 mM, exogenous H2O2 added, listed as MNTF 5-mer), 0%. Also, the “endogenous peroxide level (as defined by the 25% cutoff), in words” value is on record as “decreased” in data set [1] (1 mM, endogenous peroxide) and “decreased” in data set [1] (10 mM, endogenous peroxide). The “exogenous peroxide level (as defined by the 25% cutoff), in words” value in data set [1] (1 mM, exogenous H2O2 added) is recorded as “decreased”; in data set [1] (10 mM, exogenous H2O2 added) it was “decreased”.
Turning to “Pal 3 mer: palmitylated form of the MNTF 3 mer (SEQ ID NO:9) (Phe-Ser-Arg; also: palmitoyl group)”, the “% Control (no H2O2), peroxide level” value in data set [1] (0.01 mM, endogenous peroxide) came out at 99.4%; in data set [1] (0.1 mM, endogenous peroxide), 98.7%; in data set [1] (1 mM, endogenous peroxide), 101.1%. Besides, the “% Control (with H2O2), peroxide level” value was 101.0% in data set [1] (0.01 mM, exogenous H2O2 added); 96.1% in data set [1] (0.1 mM, exogenous H2O2 added); 71.9% in data set [1] (1 mM, exogenous H2O2 added). Further, in data set [1] (1 mM, exogenous H2O2 added), the “exogenous peroxide level (as defined by the 25% cutoff), in words” value is on record as “decreased”.
Turning to “Pal 4mer: palmitylated form of the MNTF 4 mer (SEQ ID NO:11) (FSRY; also: palmitoyl group)”, the “% Control (no H2O2), peroxide level” value in data set [1] (0.01 mM, endogenous peroxide) worked out at 97.2%; in data set [1] (0.1 mM, endogenous peroxide) it was 96.8%; in data set [1] (1 mM, endogenous peroxide), 81.8%. Moreover, the “% Control (with H2O2), peroxide level” value was determined as 102.4% in data set [1] (0.01 mM, exogenous H2O2 added); 96.6% in data set [1] (0.1 mM, exogenous H2O2 added); 67.2% in data set [1] (1 mM, exogenous H2O2 added). The “exogenous peroxide level (as defined by the 25% cutoff), in words” value in data set [1] (1 mM, exogenous H2O2 added) was “decreased”.
“Pal 5 mer: palmitylated form of the MNTF 5 mer (SEQ ID NO:17) (FSRYA; also: palmitoyl group)”: the “% Control (no H2O2), peroxide level” value in data set [1] (0.01 mM, endogenous peroxide) is listed as 95.3%; in data set [1] (0.1 mM, endogenous peroxide), 92.8%; in data set [1] (1 mM, endogenous peroxide), 83.6%. Also, the “% Control (with H2O2), peroxide level” value in data set [1] (0.01 mM, exogenous H2O2 added) came to 98.6%; in data set [1] (0.1 mM, exogenous H2O2 added), 96.0%; in data set [1] (1 mM, exogenous H2O2 added), 62.2%. Besides, the “exogenous peroxide level (as defined by the 25% cutoff), in words” value in data set [1] (1 mM, exogenous H2O2 added) is recorded as “decreased”.
For the compound FSR [CS2307], the “% Control (no H2O2), peroxide level” value is on record as 98.7% in data set [1] (0.1 mM, endogenous peroxide); 60.6% in data set [1] (1 mM, endogenous peroxide); −8.5% in data set [1] (10 mM, endogenous peroxide); 0% in data set [1] (10 mM, endogenous peroxide, listed as MNTF 3-mer). Besides, the “% Control (with H2O2), peroxide level” value in data set [1] (0.1 mM, exogenous H2O2 added) is 95.5%; in data set [1] (1 mM, exogenous H2O2 added), 62.5%; in data set [1] (10 mM, exogenous H2O2 added) it was −1.5%; in data set [1] (10 mM, exogenous H2O2 added, listed as MNTF 3-mer), 0%. Besides, the “endogenous peroxide level (as defined by the 25% cutoff), in words” value in data set [1] (1 mM, endogenous peroxide) is given as “decreased”; in data set [1] (10 mM, endogenous peroxide), “decreased”. In addition, the “exogenous peroxide level (as defined by the 25% cutoff), in words” value in data set [1] (1 mM, exogenous H2O2 added) is listed as “decreased”; in data set [1] (10 mM, exogenous H2O2 added), “decreased”.
On to FSRY [CS2308], for which the “% Control (no H2O2), peroxide level” value stood at 98.6% in data set [1] (0.1 mM, endogenous peroxide); 77.2% in data set [1] (1 mM, endogenous peroxide); 25.2% in data set [1] (10 mM, endogenous peroxide); 0% in data set [1] (10 mM, endogenous peroxide, listed as MNTF 4-mer). Further, the “% Control (with H2O2), peroxide level” value in data set [1] (0.1 mM, exogenous H2O2 added) is on record as 84.5%; in data set [1] (1 mM, exogenous H2O2 added), 54.9%; in data set [1] (10 mM, exogenous H2O2 added), −5.8%; in data set [1] (10 mM, exogenous H2O2 added, listed as MNTF 4-mer), 25.2%. For the same compound, the “exogenous peroxide level (as defined by the 25% cutoff), in words” value was “decreased” in data set [1] (1 mM, exogenous H2O2 added) and “decreased” in data set [1] (10 mM, exogenous H2O2 added). Moreover, in data set [1] (10 mM, endogenous peroxide), the “endogenous peroxide level (as defined by the 25% cutoff), in words” value is recorded as “decreased”.
FSRYAR [GM602, FSRYAR]: the “% Control (no H2O2), peroxide level” value in data set [1] (0.1 mM, endogenous peroxide) turned out to be 94.9%; in data set [1] (1 mM, endogenous peroxide) it was 73.6%; in data set [1] (10 mM, endogenous peroxide) it was 25.0%. Also, the “% Control (with H2O2), peroxide level” value was determined as 92.9% in data set [1] (0.1 mM, exogenous H2O2 added); 56.0% in data set [1] (1 mM, exogenous H2O2 added); 14.3% in data set [1] (10 mM, exogenous H2O2 added). The “Cell viability, expressed as % of non-viable, treated versus not treated cells” value in data set [1] (keratinocytes, Propidium Iodide staining) is “about the same”.
For `Cc1c(C)c2c(c(C)c1O)CCC(C)(C(=O)O)O2` (centres unmarked) [Trolox, reference compound], in data set [1] (positive control, 300 μM, endogenous peroxide), the “peroxide level, % of the control, endogenous peroxide assay without exogenous H2O2” value was determined as 69.79%. The “peroxide level, % of the control, assay with exogenous added peroxide” value in data set [1] (positive control, 300 μM, exogenous H2O2 added) is recorded as 24.97%.
Consider `CC1=C(/C=C/C(C)=C/C=C/C(C)=C/C=C/C=C(C)/C=C/C=C(C)/C=C/C2=C(C)CCCC2(C)C)C(C)(C)CCC1` [PC (beta-carotene), beta-carotene], for which the “average Color Index Value” turned out to be 100% in data set [2] (UVA energy 0 J/cm^2); 36% in data set [2] (UVA energy 1 J/cm^2); 27% in data set [2] (UVA energy 2 J/cm^2); 23% in data set [2] (UVA energy 3 J/cm^2); 16% in data set [2] (UVA energy 4 J/cm^2); 14% in data set [2] (UVA energy 5 J/cm^2). Moreover, the “average Color Index Value” in data set [2] (UVA energy 6 J/cm^2) was determined as 13%.

Source of the values: patent US8334253B2, “Cosmetic and dermatological formulations of MNTF peptides” (Dermacare Neuroscience Institute, priority 2008, dated 2012).
